Like-named read-outs stand apart in the source and are kept apart here.
Test: Ocular tissue concentrations (aqueous humor, vitreous humor, iris, retina, choroid, cornea) after topical ocular, subcutaneous and intravitreal administration
Type: in vivo, New Zealand White rabbits
Conditions: for concentration at 0.5 h / concentration at 0.5 hr / concentration at 1 h / concentration at 2 h / concentration at 4 h: subcutaneous, 5 mg/kg/dose; for Cornea Conc. (ng/mL) OS: TABLE 16: Cornea homogenate
Method: To measure the concentration of Compound 1 in plasma and ocular tissues following topical ocular, subcutaneous, and intravitreal administration, New Zealand White rabbits were administered Compound 1, and plasma and ocular samples were collected at pre-determined time points. Compound 1 formulations were prepared fresh on each day of dosing.
Ocular tissue samples from both eyes of each animal were collected and weights were recorded. Plasma and ocular tissue sample concentrations of Compound 1 were determined by LC-MS/MS.
New Zealand White rabbits weighing 2.5 to 3.5 kg were used on this study. Rabbits were housed one per cage. Animals were not fasted and only healthy animals with no ocular illness were used. Two rabbits per group were sacrificed at each of four ocular tissue sampling time points for a total of eight rabbits per group.
Animals were anesthetized for ocular (topical) and intravitreal dosing following the 12IA7 IACUC protocol. Each rabbit received a bolus dose of test formulation either via topical ocular administration 3 times daily on Days 1 and 2 (at 0, 6, and 12 hours), and once on Day 3 (at 0 hours) into both eyes; via intravitreal administration into both eyes once on Day 1 (at 0 hours); or via subcutaneous administration 2 times daily on Days 1 and 2 (at 0 and 8 hours) and once daily on Day 3 (at 0 hours). Doses were given within an approximately 1 hour window each day where applicable.
On Day 1, for intravitreal administration, or on Day 3, for topical ocular and subcutaneous administration, at the appropriate ocular tissue collection time points, animals were euthanized and both eyes were enucleated immediately. Following enucleation, each eye was rinsed with phosphate-buffered saline. Ocular tissue samples from both eyes of each animal were collected at predetermined time points and weights were recorded. All the samples were frozen immediately on dry ice, and stored at −60° C. to −80° C. pending bioanalysis.
An LC-MS/MS method was developed for the determination of Compound 1 in rabbit aqueous tissues (plasma, aqueous and vitreous humor) and solid ocular tissue samples. A pre-study standard curve was analyzed to determine the specificity, range, and lower limit of quantitation of the method. Plasma and tissue homogenate study samples were extracted and analyzed. All the samples were treated identically to the standards.
One eight-point standard curve was used in each analytical batch. To be accepted, each batch must have had at least five of eight standards with accuracy within ±20% of nominal, except at the lower limit of quantification (LLOQ), where ±25% was acceptable.
Concentration versus time data is plotted in FIGS. 3-16. All data are expressed as ng/g of the free drug. Samples that were below the limit of quantitation (0.2 ng/mL) were not used in the calculation of averages.

concentration at 48 h (New Zealand White, rabbit, retina, other: intravitreal, 2.5 mg/eye, Retina, 48 hr, sodium salt, intravitreal 2.5 mg/eye, Group 4, read-out: Retina Avg.): 72600 ng/g | concentration at 72 h (New Zealand White, rabbit, retina, other: intravitreal, 2.5 mg/eye, Retina, OD, sodium salt, intravitreal 2.5 mg/eye, Group 4, read-out: Retina Conc. (ng/g) OD): 8250 ng/g | concentration at 72 h (New Zealand White, rabbit, retina, other: intravitreal, 2.5 mg/eye, Retina, OS, sodium salt, intravitreal 2.5 mg/eye, Group 4, read-out: Retina Conc. (ng/g) OS): 4070 ng/g | concentration at 72 h (New Zealand White, rabbit, retina, other: intravitreal, 2.5 mg/eye, Retina, average, intravitreal 2.5 mg/eye (group 5), read-out: Avg.): 109000 ng/g | concentration at 72 h (New Zealand White, rabbit, retina, other: intravitreal, 2.5 mg/eye, Retina, left eye, intravitreal 2.5 mg/eye (group 5), individual animals, read-out: Conc. (ng/g) OS): 119000 ng/g | concentration at 72 h (New Zealand White, rabbit, retina, other: intravitreal, 2.5 mg/eye, Retina, right eye, intravitreal 2.5 mg/eye (group 5), individual animals, read-out: Conc. (ng/g) OD): 109000 ng/g | concentration at 72 h (New Zealand White, rabbit, retina, other: intravitreal, 2.5 mg/eye, Retina, sodium salt, intravitreal 2.5 mg/eye, Group 4, read-out: Retina Avg.): 6060 ng/g | concentration at 0.5 h (New Zealand White, rabbit, retina, Retina, OD, sodium salt, subcutaneous 5 mg/kg/dose, Group 2, read-out: Retina Conc. (ng/g) OD): 30.5 ng/g | concentration at 0.5 hr (New Zealand White, rabbit, retina, Retina, OS, sodium salt, subcutaneous 5 mg/kg/dose, Group 2, read-out: Retina Conc. (ng/g) OS): 48 ng/g | concentration at 0.5 h (New Zealand White, rabbit, retina, Retina, free acid, subcutaneous 5 mg/kg/dose, Group 3, read-out: Retina Average): 38.7 ng/g | concentration at 0.5 hr (New Zealand White, rabbit, retina, Retina, sodium salt, subcutaneous 5 mg/kg/dose, Group 2, read-out: Retina Average): 40.5 ng/g | concentration at 1 h (New Zealand White, rabbit, retina, Retina, 1 hr, OD, free acid, subcutaneous 5 mg/kg/dose, Group 3, read-out: Retina Conc. (ng/g) OD): 10.4 ng/g | concentration at 1 h (New Zealand White, rabbit, retina, Retina, 1 hr, OD, sodium salt, subcutaneous 5 mg/kg/dose, Group 2, read-out: Retina Conc. (ng/g) OD): 22.4 ng/g | concentration at 1 h (New Zealand White, rabbit, retina, Retina, 1 hr, OS, free acid, subcutaneous 5 mg/kg/dose, Group 3, read-out: Retina Conc. (ng/g) OS): 6.93 ng/g | concentration at 1 h (New Zealand White, rabbit, retina, Retina, 1 hr, OS, sodium salt, subcutaneous 5 mg/kg/dose, Group 2, read-out: Retina Conc. (ng/g) OS): 43.2 ng/g | concentration at 1 h (New Zealand White, rabbit, retina, Retina, 1 hr, free acid, subcutaneous 5 mg/kg/dose, Group 3, read-out: Retina Average): 10.2 ng/g | concentration at 1 h (New Zealand White, rabbit, retina, Retina, 1 hr, sodium salt, subcutaneous 5 mg/kg/dose, Group 2, read-out: Retina Average): 32.6 ng/g | concentration at 2 h (New Zealand White, rabbit, retina, Retina, 2 hr, OD, free acid, subcutaneous 5 mg/kg/dose, Group 3, read-out: Retina Conc. (ng/g) OD): 6.31 ng/g | concentration at 2 h (New Zealand White, rabbit, retina, Retina, 2 hr, OD, sodium salt, subcutaneous 5 mg/kg/dose, Group 2, read-out: Retina Conc. (ng/g) OD): 15 ng/g | concentration at 2 h (New Zealand White, rabbit, retina, Retina, 2 hr, OS, free acid, subcutaneous 5 mg/kg/dose, Group 3, read-out: Retina Conc. (ng/g) OS): 6.93 ng/g | concentration at 2 h (New Zealand White, rabbit, retina, Retina, 2 hr, OS, sodium salt, subcutaneous 5 mg/kg/dose, Group 2, read-out: Retina Conc. (ng/g) OS): 17.8 ng/g | concentration at 2 h (New Zealand White, rabbit, retina, Retina, 2 hr, free acid, subcutaneous 5 mg/kg/dose, Group 3, read-out: Retina Average): 10.5 ng/g | concentration at 2 h (New Zealand White, rabbit, retina, Retina, 2 hr, sodium salt, subcutaneous 5 mg/kg/dose, Group 2, read-out: Retina Average): 16.4 ng/g | concentration at 4 h (New Zealand White, rabbit, retina, Retina, 4 hr, OD, sodium salt, subcutaneous 5 mg/kg/dose, Group 2, read-out: Retina Conc. (ng/g) OD): 19.7 ng/g | concentration at 4 h (New Zealand White, rabbit, retina, Retina, 4 hr, free acid, subcutaneous 5 mg/kg/dose, Group 3, read-out: Retina Average): 35.3 ng/g | concentration at 4 h (New Zealand White, rabbit, retina, Retina, 4 hr, sodium salt, subcutaneous 5 mg/kg/dose, Group 2, read-out: Retina Average): 19.7 ng/g | concentration at 0.5 h (New Zealand White, rabbit, retina, TABLE 16: Retina, free acid, subcutaneous 5 mg/kg/dose, Group 3, read-out: Retina Average): 38.7 ng/g | concentration at 1 h (New Zealand White, rabbit, retina, TABLE 16: Retina, 1 hr, OD, free acid, subcutaneous 5 mg/kg/dose, Group 3, read-out: Retina Conc. (ng/g) OD): 10.4 ng/g | concentration at 1 h (New Zealand White, rabbit, retina, TABLE 16: Retina, 1 hr, OS, free acid, subcutaneous 5 mg/kg/dose, Group 3, read-out: Retina Conc. (ng/g) OS): 6.93 ng/g | concentration at 1 h (New Zealand White, rabbit, retina, TABLE 16: Retina, 1 hr, free acid, subcutaneous 5 mg/kg/dose, Group 3, read-out: Retina Average): 10.2 ng/g | concentration at 2 h (New Zealand White, rabbit, retina, TABLE 16: Retina, 2 hr, OD, free acid, subcutaneous 5 mg/kg/dose, Group 3, read-out: Retina Conc. (ng/g) OD): 6.31 ng/g | concentration at 2 h (New Zealand White, rabbit, retina, TABLE 16: Retina, 2 hr, OS, free acid, subcutaneous 5 mg/kg/dose, Group 3, read-out: Retina Conc. (ng/g) OS): 6.93 ng/g | concentration at 2 h (New Zealand White, rabbit, retina, TABLE 16: Retina, 2 hr, free acid, subcutaneous 5 mg/kg/dose, Group 3, read-out: Retina Average): 10.5 ng/g | concentration at 4 h (New Zealand White, rabbit, retina, TABLE 16: Retina, 4 hr, free acid, subcutaneous 5 mg/kg/dose, Group 3, read-out: Retina Average): 35.3 ng/g
Compound: COC(=O)N[C@@H](Cc1ccccc1)C(=O)N[C@@H](Cc1ccc(NS(=O)(=O)O)cc1)c1csc(-c2cccs2)n1 [Compound 1]
Retina Conc. (ng/mL) OD (Retina homogenate, 4 hr, OD, free acid, subcutaneous 5 mg/kg/dose, Group 3): BLOQ (Below the limit of quantitation (0.5 ng/mL)) | Retina Conc. (ng/mL) OS (Retina homogenate, 4 hr, OS, sodium salt, subcutaneous 5 mg/kg/dose, Group 2): BLOQ (Below the limit of quantitation (0.5 ng/mL)) | Cornea Conc. (ng/mL) OS (1 hr, OS, free acid, subcutaneous 5 mg/kg/dose, Group 3): BLOQ (Below the limit of quantitation (0.5 ng/mL)) | Cornea Conc. (ng/mL) OS (2 hr, OS, free acid, subcutaneous 5 mg/kg/dose, Group 3): BLOQ (Below the limit of quantitation (0.5 ng/mL)) | Retina Conc. (ng/mL) OD (TABLE 16: Retina homogenate, 4 hr, OD, free acid, subcutaneous 5 mg/kg/dose, Group 3): BLOQ (Below the limit of quantitation (0.5 ng/mL)) | rank order of exposure in aqueous and vitreous humor by route (intravitreal, topical ocular, subcutaneous administration): intravitreal>>topical ocular>subcutaneous administration

Source: US11666558B2, “Methods of treating intraocular pressure with activators of Tie-2” (EyePoint Pharmaceuticals, Inc., priority 2015, dated 2023)
